Calls of active or inactive are those of the source. The calls are words filed in the database; no cut-off is given here.
Key:
Homo sapiens = species on record: Homo sapiens; test: Selectivity index, ratio of IC50 for recombinant human MAO-A to IC50 for recombinant human MAO-B
[1] = target: T1, Amine oxidase [flavin-containing] B (Homo sapiens, UniProt P27338); test: Inhibition of recombinant human MAO-B expressed in baculovirus infected BTI insect cells assessed as reduction in H2O2 production using p-tyramine as substrate pretreated for 30 mins followed by substrate addition after 30 mins by Amplex red reagent based assay
T1 sequence (P27338 whole entry): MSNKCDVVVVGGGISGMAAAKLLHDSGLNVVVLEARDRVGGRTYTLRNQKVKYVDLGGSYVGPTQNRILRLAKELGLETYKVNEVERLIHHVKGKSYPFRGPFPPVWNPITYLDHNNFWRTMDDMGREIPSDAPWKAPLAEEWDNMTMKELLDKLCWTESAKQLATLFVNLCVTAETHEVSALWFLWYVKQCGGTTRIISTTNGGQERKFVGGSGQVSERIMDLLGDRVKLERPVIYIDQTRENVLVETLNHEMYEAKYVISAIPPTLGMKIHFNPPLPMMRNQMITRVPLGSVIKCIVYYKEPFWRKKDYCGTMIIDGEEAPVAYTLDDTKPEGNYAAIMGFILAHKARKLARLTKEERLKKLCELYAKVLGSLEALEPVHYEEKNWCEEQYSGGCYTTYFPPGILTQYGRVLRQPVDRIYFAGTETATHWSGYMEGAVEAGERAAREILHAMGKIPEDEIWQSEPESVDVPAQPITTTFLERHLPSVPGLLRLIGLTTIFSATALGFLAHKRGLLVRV

[2] = target: T2, Amine oxidase [flavin-containing] A (Homo sapiens, UniProt P21397); test: Inhibition of recombinant human MAO-A expressed in baculovirus infected BTI insect cells assessed as reduction in H2O2 production using p-tyramine as substrate pretreated for 30 mins followed by substrate addition after 30 mins by Amplex red reagent based assay
T2 sequence (P21397 whole entry): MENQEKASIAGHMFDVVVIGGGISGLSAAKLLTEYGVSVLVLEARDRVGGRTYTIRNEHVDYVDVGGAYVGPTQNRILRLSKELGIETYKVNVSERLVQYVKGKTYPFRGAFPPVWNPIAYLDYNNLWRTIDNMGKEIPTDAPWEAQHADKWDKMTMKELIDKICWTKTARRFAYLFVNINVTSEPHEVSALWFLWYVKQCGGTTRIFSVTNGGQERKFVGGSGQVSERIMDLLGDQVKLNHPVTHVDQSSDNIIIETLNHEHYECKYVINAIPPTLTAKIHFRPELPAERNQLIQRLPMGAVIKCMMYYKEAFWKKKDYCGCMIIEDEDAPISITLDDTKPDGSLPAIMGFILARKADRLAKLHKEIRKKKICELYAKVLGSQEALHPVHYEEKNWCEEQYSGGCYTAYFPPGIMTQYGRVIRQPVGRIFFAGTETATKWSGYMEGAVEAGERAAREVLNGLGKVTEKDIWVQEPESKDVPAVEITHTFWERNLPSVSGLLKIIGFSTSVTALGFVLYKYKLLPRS

PC-12 [3] = test: Neuroprotective activity against H2O2-induced toxicity in rat PC12 cells at 50 to 100 uM pretreated followed by H2O2 challenge measured after 24 hrs; type: functional, cell-based
[4] = Cytotoxicity against rat PC12 cells assessed as cell viability at 50 uM after 24 hrs by WST-1 assay relative to control; type: cell-based, PC-12; details: read-out: Activity
[5] = target: T1, Amine oxidase [flavin-containing] B; test: Reversible inhibition of recombinant human MAO-B expressed in baculovirus infected BTI insect cells assessed as reduction in H2O2 production using p-tyramine as substrate at 3 times IC50 pretreated up to 60 mins followed by substrate addition after 30 mins by Amplex red reagent based assay; details: 0.5 h
[6] = Cytotoxicity against human SH-SY5Y cells assessed as cell viability at 50 uM after 24 hrs by WST-1 assay relative to control; type: cell-based; details: read-out: Activity
[7] = Cytotoxicity against rat PC-12 Adh cells assessed as cell viability at 50 uM after 24 hrs by WST-1 assay relative to control; type: cell-based; details: read-out: Activity
PC-12 [8] = test: Neuroprotective activity against rotenone-induced toxicity in rat PC12 cells at 50 to 100 uM pretreated followed by rotenone challenge measured after 24 hrs; type: functional, cell-based
[9] = target: T1, Amine oxidase [flavin-containing] B; test: (§1) Competitive inhibition of recombinant human MAO-B expressed in baculovirus infected BTI insect cells assessed as reduction in H2O2 production at 11 to 44 nM using varying levels of p-tyramine as substrate pretreated up to 60 mins followed by substrate addition measured after 30 mins by Line-weaver burk plot analysis; details: 0.5 h
[10] = target: T1, Amine oxidase [flavin-containing] B; test: as §1, with “4” for “11”, “16” for “44”; details: 0.5 h

| Ratio IC50 (Homo sapiens) | IC50 [1] | IC50 [2] | inhibition (INH) [5] | inhibition (INH) [9] | inhibition (INH) [10] | Compound | Activity (PC-12 [3]) | viability at 24 h, 50 µM [4] | viability at 24 h, 50 µM [6] | viability at 24 h, 50 µM [7] | Activity (PC-12 [8]) |
| --- | --- | --- | --- | --- | --- | --- | --- | --- | --- | --- | --- |
| > 578 | 173 nM | > 100000 nM | – | – | – | O=C1COC(c2ccc(/C=C/c3cccc(Cl)c3)cc2)=NN1 | – | – | – | – | – |
| > 255 | 392 nM | > 100000 nM | – | – | – | O=C1COC(c2ccc(/N=N/c3ccc(Cl)cc3)cc2)=NN1 | – | – | – | – | – |
| > 357 | 284 nM | > 100000 nM | – | – | – | O=C1COC(c2ccc(NC(=O)c3cccc(Cl)c3)cc2)=NN1 | – | – | – | – | – |
| > 34 | 2890 nM | > 100000 nM | – | – | – | O=C1COC(c2ccc(NC(=O)Nc3cccc(Cl)c3)cc2)=NN1 | – | – | – | – | – |
| > 344 | 288 nM | > 100000 nM | – | – | – | O=C1COC(c2ccc(C(=O)Nc3cccc(Cl)c3)cc2)=NN1 | – | – | – | – | – |
| > 27 | 3690 nM | > 100000 nM | – | – | – | NC(=O)CN1N=C(c2ccc(NC(=O)c3cccc(Cl)c3)cc2)OCC1=O | – | – | – | – | – |
| > 348 | 287 nM | > 100000 nM | – | – | – | O=C1COC(c2ccc(/N=N/c3cccc(Cl)c3)cc2)=NN1 | – | – | – | – | – |
| > 78 | 1270 nM | > 100000 nM | Active | – | – | Cc1cccc(/C=N/c2ccc(C3=NNC(=O)CO3)cc2)c1 | inactive | > 90% | > 90% | > 90% | inactive |
| > 231 | 433 nM | > 100000 nM | – | – | – | O=C1COC(c2ccc(/N=C/c3ccc(Cl)cc3)cc2)=NN1 | – | – | – | – | – |
| > 4540 | 22 nM | > 100000 nM | Active | Active | – | O=C1COC(c2ccc(/C=C/c3cccc(F)c3)cc2)=NN1 | inactive | > 90% | > 90% | > 90% | inactive |
| > 18 | 554 nM | > 10000 nM | – | – | – | O=C1COC(c2ccc(/C=N/Nc3cccc(Cl)c3)cc2)=NN1 | – | – | – | – | – |
| > 182 | 551 nM | > 100000 nM | – | – | – | O=C1COC(c2ccc(/C=N/c3cccc(Cl)c3)cc2)=NN1 | – | – | – | – | – |
| – | > 10000 nM | > 100000 nM | – | – | – | O=C1COC(c2ccc(NS(=O)(=O)c3cccc(Cl)c3)cc2)=NN1 | – | – | – | – | – |
| > 8330 | 12 nM | > 100000 nM | – | – | – | O=C1COC(c2ccc(/N=N/c3cccc(F)c3)cc2)=NN1 | – | – | – | – | – |
| – | > 10000 nM | > 100000 nM | – | – | – | O=C1COC(c2ccc(/N=C/c3ccccc3)cc2)=NN1 | – | – | – | – | – |
| > 606 | 165 nM | > 100000 nM | – | – | – | O=C1COC(c2ccc(/C=C/c3ccccc3)cc2)=NN1 | – | – | – | – | – |
| > 296 | 338 nM | > 100000 nM | – | – | – | Cc1cccc(/C=C/c2ccc(C3=NNC(=O)CO3)cc2)c1 | – | – | – | – | – |
| > 185 | 542 nM | > 100000 nM | – | – | – | O=C1COC(c2ccc(/C=C/c3ccc(Cl)cc3)cc2)=NN1 | – | – | – | – | – |
| > 4000 | 25 nM | > 100000 nM | – | – | – | Cc1cccc(/N=N/c2ccc(C3=NNC(=O)CO3)cc2)c1 | – | – | – | – | – |
| > 65 | 1530 nM | > 100000 nM | – | – | – | O=C1COC(c2ccc(/N=C/c3cccc(F)c3)cc2)=NN1 | – | – | – | – | – |
| > 49 | 2030 nM | > 100000 nM | – | – | – | CN1N=C(c2ccc(/N=C/c3cccc(Cl)c3)cc2)OCC1=O | – | – | – | – | – |
| > 24 | 4230 nM | > 100000 nM | – | – | – | N#CCCN1N=C(c2ccc(NC(=O)c3cccc(Cl)c3)cc2)OCC1=O | – | – | – | – | – |
| – | > 10000 nM | > 100000 nM | – | – | – | CCN1N=C(c2ccc(/C=C/c3cccc(Cl)c3)cc2)OCC1=O | – | – | – | – | – |
| > 385 | 257 nM | > 100000 nM | Active | – | – | O=C1COC(c2ccc(/N=C/c3cccc(Cl)c3)cc2)=NN1 | inactive | > 90% | > 90% | > 90% | inactive |
| > 25000 | 4 nM | > 100000 nM | Active | – | Active | O=C1COC(c2ccc(/N=N/c3ccccc3)cc2)=NN1 | inactive | > 90% | > 90% | > 90% | inactive |
| > 37 | 2690 nM | > 100000 nM | – | – | – | O=C1COC(c2ccc(NCc3cccc(Cl)c3)cc2)=NN1 | – | – | – | – | – |
